Read-outs that look alike come from different tables or passages of the source. Where a SMILES comes first, the peptide text is derived from it. Bridges are numbered along the chain shown (N, C = ends). [ ]: non-standard residue; d: D form. The star is where a group is joined. hPhe(3-Cl-4-CF3) = N[C@@H](CCc1ccc(C(F)(F)F)c(Cl)c1)C(=O)O; NPrPhe(4-CF3) = CCCN[C@@H](Cc1ccc(C(F)(F)F)cc1)C(=O)O; NEtPhe(4-Me) = CCN[C@@H](Cc1ccc(C)cc1)C(=O)O; NMePhe(4-Me) = CN[C@@H](Cc1ccc(C)cc1)C(=O)O; NMePhe(4-F) = CN[C@@H](Cc1ccc(F)cc1)C(=O)O; NMeGly(cPent) = CN[C@H](C(=O)O)C1CCCC1; Piperidide(4-Me) = CC1CCN(*)CC1; NMeD = CN[C@@H](CC(=O)O)C(=O)O; NMeL = CN[C@@H](CC(C)C)C(=O)O; Pip = O=C(O)[C@@H]1CCCCN1; Morpholide = C1CN(*)CCO1; NMeA = CN[C@@H](C)C(=O)O; NMeAib = CNC(C)(C)C(=O)O; Nle = CCCC[C@H](N)C(=O)O; Piperidide = C1CCN(*)CC1; Ac5c = NC1(C(=O)O)CCCC1; Aze = O=C(O)[C@@H]1CCN1; NPrGly = CCCNCC(=O)O; Sar = CNCC(=O)O
Columns and labels:
[1] = biological target: GDP-bound NRAS wild-type protein (Homo sapiens, UniProt P01111); experiment: Binding to NRAS by surface plasmon resonance (SPR), Single Cycle Kinetics; settings: for NRAS/KRAS (ratio of KD value for NRAS to KD value for KRAS): SPR, GDP-bound NRAS wild-type protein vs GDP-bound KRAS wild-type protein; for NRAS/KRAS (ratio of KD value with respect to GDP-bound NRAS wild-type protein to KD value with respect to KRAS): SPR KD ratio NRAS/KRAS, class symbols
Sequence of GDP-bound NRAS wild-type protein (P01111 whole entry): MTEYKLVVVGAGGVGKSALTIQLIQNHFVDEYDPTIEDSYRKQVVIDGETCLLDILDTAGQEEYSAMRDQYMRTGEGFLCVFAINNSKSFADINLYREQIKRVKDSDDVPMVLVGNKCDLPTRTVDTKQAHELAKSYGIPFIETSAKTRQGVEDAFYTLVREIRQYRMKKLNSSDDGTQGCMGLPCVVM

[2] = biological target: GDP-bound KRAS wild-type protein (Homo sapiens, UniProt P01116); experiment: Binding to KRAS by surface plasmon resonance (SPR), Single Cycle Kinetics; settings: GDP-bound KRAS wild-type protein, read-out: KRAS KD
Sequence of GDP-bound KRAS wild-type protein (P01116 whole entry): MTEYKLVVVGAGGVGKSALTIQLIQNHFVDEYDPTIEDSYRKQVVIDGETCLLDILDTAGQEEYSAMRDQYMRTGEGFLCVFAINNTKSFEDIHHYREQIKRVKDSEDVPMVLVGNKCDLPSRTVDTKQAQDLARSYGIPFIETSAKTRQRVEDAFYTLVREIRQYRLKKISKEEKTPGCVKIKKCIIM

[3] = biological target: GDP-bound HRAS wild-type protein (Homo sapiens, UniProt P01112); experiment: Binding to HRAS by surface plasmon resonance (SPR), Single Cycle Kinetics; settings: for HRAS/KRAS (ratio of KD value for HRAS to KD value for KRAS): SPR, GDP-bound HRAS wild-type protein vs GDP-bound KRAS wild-type protein; for HRAS/KRAS (ratio of KD value with respect to GDP-bound HRAS wild-type protein to KD value with respect to KRAS): SPR KD ratio HRAS/KRAS, class symbols
Sequence of GDP-bound HRAS wild-type protein (P01112 whole entry): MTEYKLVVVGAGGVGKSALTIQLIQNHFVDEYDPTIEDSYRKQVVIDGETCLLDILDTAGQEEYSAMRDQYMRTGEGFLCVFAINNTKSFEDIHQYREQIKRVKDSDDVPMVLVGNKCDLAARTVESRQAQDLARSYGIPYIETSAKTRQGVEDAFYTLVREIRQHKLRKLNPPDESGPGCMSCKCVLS

[4] = SPR Single Cycle Kinetics, 1:1 binding model

Row | Kd [2, 4] [nM] | Kd ([2]; SPR, Single Cycle Kinetics) [nM] | Compound | NRAS/KRAS (ratio of KD value for NRAS to KD value for KRAS) [1] | HRAS/KRAS (ratio of KD value for HRAS to KD value for KRAS) [3] | other results
1 |  | 0.91 | CCO[C@@H]1C[C@H]2C(=O)NC3(CCC3)C(=O)N(C)[C@@H](C3CCCC3)C(=O)N(C)[C@H](C(=O)N(C)C)CC(=O)N(C)[C@@H](CC)C(=O)N[C@@H]([C@@H](C)CC)C(=O)N3CC[C@H]3C(=O)N(C)[C@H]3CC(C)=C(C)CN(C3=O)[C@@H](Cc3ccc(C(F)(F)F)cc3)C(=O)N(C)CC(=O)N[C@@H](CCc3cc(F)c(C(F)(F)F)c(F)c3)C(=O)N2C1 [PP1049] | C (A compound having a KD ratio of 0.1 or more and less than 3 is denoted as C) | C (A compound having a KD ratio of 0.1 or more and less than 3 is denoted as C) | 
2 |  | 12 | CCO[C@@H]1C[C@H]2C(=O)NC3(CCC3)C(=O)N(C)[C@@H](C3CCCC3)C(=O)N(C)[C@H](C(=O)N3CCOCC3)CC(=O)N(C)[C@@H](COC)C(=O)N[C@@H]([C@@H](C)CC)C(=O)N(C)CC(=O)N(C)[C@H]3CCCCCN(C3=O)[C@@H](Cc3ccc(C(F)(F)F)cc3)C(=O)N(C)CC(=O)N[C@@H](CCc3ccc(C)cc3)C(=O)N2C1 [PP0850] | B (a compound having 3 or more and less than 10 is denoted as B) | B (a compound having 3 or more and less than 10 is denoted as B) | 
3 |  | 0.1 | CC[C@H](C)[C@@H]1NC(=O)[C@H](CC(C)C)N(C)C(=O)C[C@@H](C(=O)N2CCOCC2)N(C)C(=O)[C@H](C2CCCC2)N(C)C(=O)C2(CCC2)NC(=O)[C@@H]2C[C@@H](OCC3CCCC3)CN2C(=O)[C@H](CCc2cc(F)c(C(F)(F)F)c(F)c2)NC(=O)CN(C)C(=O)[C@H](Cc2ccc(C(F)(F)F)cc2)N2CCCC[C@@H](C2=O)N(C)C(=O)CN(C)C1=O [PP1001] | B (a compound having 3 or more and less than 10 is denoted as B) | B (a compound having 3 or more and less than 10 is denoted as B) | 
4 |  | 0.055 | CCO[C@@H]1C[C@H]2C(=O)NC3(CCC3)C(=O)N(C)[C@@H](C3CCCC3)C(=O)N(C)[C@H](C(=O)N(C)C)CC(=O)N(C)[C@@H](CC)C(=O)N[C@@H]([C@@H](C)CC)C(=O)N(C)CC(=O)N(C)[C@H]3C/C=C\CCN(C3=O)[C@@H](Cc3ccc(C(F)(F)F)cc3)C(=O)N(C)CC(=O)N[C@@H](CCc3cc(F)c(C(F)(F)F)c(F)c3)C(=O)N2C1 [PP0824, (2S,8S,12R,14S,20S,23S,27S,30S,36S,38Z)-20-cyclopentyl-8-[2-[3,5-difluoro-4-(trifluoromethyl)phenyl]ethyl]-12-ethoxy-27-ethyl-N,N,4,19,22,26,32,35-octamethyl-30-[(1S)-1-methylpropyl]-3,6,9,15,18,21,25,28,31,34,42-undecaoxo-2-[[4-(trifluoromethyl)phenyl]methyl]spiro[1,4,7,10,16,19,22,26,29,32,35-undecazatricyclo[34.5.1.0^10,14]dotetracont-38-ene-17,1′-cyclobutane]-23-carboxamide] | A (a compound having 10 or more and less than 20 is denoted as A) | A (a compound having 10 or more and less than 20 is denoted as A) | 
5 | 0.12 |  | C#CC[C@H]1C(=O)N[C@@H]([C@@H](C)CC)C(=O)N(C)CC(=O)N(C)[C@H]2C/C=C\CCN(C2=O)[C@@H](Cc2ccc(C(F)(F)F)cc2)C(=O)N(C)CC(=O)N[C@@H](CCc2ccc(C(F)(F)F)c(Cl)c2)C(=O)N2C[C@H](OCC)C[C@H]2C(=O)NC2(CC(C)(C)C2)C(=O)N(C)[C@@H](C2CCCC2)C(=O)N(C)[C@H](C(=O)N(C)CC)CC(=O)N1C [PP2844] |  |  | NRAS/KRAS (ratio of KD value with respect to GDP-bound NRAS wild-type protein to KD value with respect to KRAS) [1]: A (a compound having 10 or more and less than 20 is denoted as A); HRAS/KRAS (ratio of KD value with respect to GDP-bound HRAS wild-type protein to KD value with respect to KRAS) [3]: A (a compound having 10 or more and less than 20 is denoted as A)

Further lines, the compound ahead of its results:

Row | Compound | Kd [2, 4] [nM] | Kd ([2]; SPR, Single Cycle Kinetics) [nM] | NRAS/KRAS (ratio of KD value for NRAS to KD value for KRAS) [1] | HRAS/KRAS (ratio of KD value for HRAS to KD value for KRAS) [3] | other results
6 | CCCN1CC(=O)N(C)[C@@H](Cc2ccc(C)cc2)C(=O)N(C)CC(=O)N[C@@H](CCc2ccc(C(F)(F)F)c(Cl)c2)C(=O)N2CCC[C@H]2C(=O)NC2(CCCC2)C(=O)N(C)[C@@H](C2CCCC2)C(=O)N(C)[C@H](C(=O)N2CCOCC2)CC(=O)N(C)[C@@H](CC(C)C)C(=O)N[C@@H]([C@@H](C)CC)C(=O)N(C)CC1=O [PP0020] ([NMeL]I[Sar][NPrGly][NMePhe(4-Me)][Sar][hPhe(3-Cl-4-CF3)]P[Ac5c][NMeGly(cPent)][NMeD]-Morpholide; lactam N-11) | 0.77 |  | C (A compound having a KD ratio of 0.1 or more and less than 3 is denoted as C) | C (A compound having a KD ratio of 0.1 or more and less than 3 is denoted as C) | 
7 | CC[C@H](C)[C@@H]1NC(=O)[C@H](CC(C)C)N(C)C(=O)C[C@@H](C(=O)N2CCOCC2)N(C)C(=O)[C@H](C2CCCC2)N(C)C(=O)C2(CCCC2)NC(=O)[C@@H]2CCCN2C(=O)[C@H](CCc2ccc(C(F)(F)F)c(Cl)c2)NC(=O)CN(C)C(=O)[C@H](Cc2ccc(F)cc2)N(C)C(=O)CN(C)C(=O)CN(C)C1=O [PP0212] ([NMeL]I[Sar][Sar][NMePhe(4-F)][Sar][hPhe(3-Cl-4-CF3)]P[Ac5c][NMeGly(cPent)][NMeD]-Morpholide; lactam N-11) | 0.098 |  | C (A compound having a KD ratio of 0.1 or more and less than 3 is denoted as C) | C (A compound having a KD ratio of 0.1 or more and less than 3 is denoted as C) | 
8 | CCCC[C@@H]1NC(=O)[C@H](CCc2ccc(C(F)(F)F)c(Cl)c2)NC(=O)CN(C)C(=O)[C@H](Cc2ccc(C)cc2)N(CC)C(=O)[C@@H]2CCN2C(=O)[C@H](C)N(C)C(=O)[C@H]([C@@H](C)CC)NC(=O)[C@H](CC(C)C)N(C)C(=O)C[C@@H](C(=O)N2CCCCC2)N(C)C(=O)[C@H](CC(C)C)NC(=O)C(C)(C)N(C)C1=O [PP0048] ([NMeL]I[NMeA][Aze][NEtPhe(4-Me)][Sar][hPhe(3-Cl-4-CF3)][Nle][NMeAib]L[NMeD]-Piperidide; lactam N-11) | 63 |  | C (A compound having a KD ratio of 0.1 or more and less than 3 is denoted as C) | C (A compound having a KD ratio of 0.1 or more and less than 3 is denoted as C) | 
9 | CCO[C@@H]1C[C@H]2C(=O)NC3(CC(F)(F)C3)C(=O)N(C)[C@@H](C3CCCC3)C(=O)N(C)C(C(C)C)CC(=O)N(C)[C@@H](CC3CC3)C(=O)N[C@@H]([C@@H](C)CC)C(=O)N(C)CC(=O)N(C)[C@H]3C/C=C\CCN(C3=O)[C@@H](Cc3ccc(C(F)(F)F)cc3)C(=O)N(C)CC(=O)N[C@@H](CCc3cc(F)c(C(F)(F)F)c(F)c3)C(=O)N2C1 (stereo partly drawn) [PP1598] |  |  |  |  | NRAS/KRAS (ratio of KD value for NRAS to KD value for KRAS) ([1]; KD ratio class): A (a compound having 10 or more and less than 20 is denoted as A); Kd ([2]; SPR, Single Cycle Kinetics, 1:1 binding model): 0.76 nM; HRAS/KRAS (ratio of KD value for HRAS to KD value for KRAS) ([3]; KD ratio class): A (a compound having 10 or more and less than 20 is denoted as A)
10 | CCO[C@@H]1C[C@H]2C(=O)NC3(CC(C)(C)C3)C(=O)N(C)[C@@H](C(CC)CC)C(=O)N(C)[C@H](C(=O)N(C)C)CC(=O)N(C)[C@H]3CCC/C=C/c4ccc(cc4)C[C@@H](C(=O)N(C)CC(=O)N[C@@H](CCc4ccc(Cl)c(Cl)c4)C(=O)N2C1)N1CC/C=C\C[C@@H](C1=O)N(C)C(=O)CN(C)C(=O)[C@H]([C@@H](C)CC)NC3=O [PP2580] | 0.2 |  |  |  | NRAS/KRAS (ratio of KD value with respect to GDP-bound NRAS wild-type protein to KD value with respect to KRAS) [1]: AA (a compound having 20 or more is denoted as AA); HRAS/KRAS (ratio of KD value with respect to GDP-bound HRAS wild-type protein to KD value with respect to KRAS) [3]: A (a compound having 10 or more and less than 20 is denoted as A)
11 | CCCN1C(=O)CN(C)C(=O)CN(C)C(=O)[C@H]([C@@H](C)CC)NC(=O)[C@H](CC(C)C)N(C)C(=O)C[C@@H](C(=O)N2CCC(C)CC2)N(C)C(=O)[C@H](C2CCCC2)N(C)C(=O)C2(CCCC2)NC(=O)[C@@H]2CCCN2C(=O)[C@H](CCc2ccc(C(F)(F)F)c(Cl)c2)NC(=O)CN(C)C(=O)[C@@H]1Cc1ccc(C(F)(F)F)cc1 [PP0176] ([NMeL]I[Sar][Sar][NPrPhe(4-CF3)][Sar][hPhe(3-Cl-4-CF3)]P[Ac5c][NMeGly(cPent)][NMeD]-{Piperidide(4-Me)}; lactam N-11) | 0.55 |  | B (a compound having 3 or more and less than 10 is denoted as B) | C (A compound having a KD ratio of 0.1 or more and less than 3 is denoted as C) | 
12 | CCCN1C(=O)CN(C)C(=O)[C@@H]2CCN2C(=O)[C@H]([C@@H](C)CC)NC(=O)[C@H](CC(C)C)N(C)C(=O)C[C@@H](C(=O)N2CCOCC2)N(C)C(=O)[C@H](C2CCCC2)N(C)C(=O)C2(CCCC2)NC(=O)[C@@H]2CCCCN2C(=O)[C@H](CCc2ccc(C(F)(F)F)c(Cl)c2)NC(=O)CN(C)C(=O)[C@@H]1Cc1ccc(C(F)(F)F)cc1 [PP0311] ([NMeL]I[Aze][Sar][NPrPhe(4-CF3)][Sar][hPhe(3-Cl-4-CF3)][Pip][Ac5c][NMeGly(cPent)][NMeD]-Morpholide; lactam N-11) | 3.3 |  | B (a compound having 3 or more and less than 10 is denoted as B) | B (a compound having 3 or more and less than 10 is denoted as B) | 
13 | CCO[C@@H]1C[C@H]2C(=O)NC3(CC(C)(C)C3)C(=O)N(C)[C@@H](C3CCCC3)C(=O)N(C)[C@H](C(=O)N3CCCC3)CC(=O)N(C)[C@H]3CCC/C=C/c4ccc(cc4)C[C@@H](C(=O)N(C)CC(=O)N[C@@H](CCc4cc(F)c(C(F)(F)F)c(F)c4)C(=O)N2C1)N1CC/C=C\C[C@@H](C1=O)N(C)C(=O)CN(C1CC1)C(=O)[C@H]([C@@H](C)CC)NC3=O [PP2583] | 0.11 |  |  |  | NRAS/KRAS (ratio of KD value with respect to GDP-bound NRAS wild-type protein to KD value with respect to KRAS) [1]: A (a compound having 10 or more and less than 20 is denoted as A); HRAS/KRAS (ratio of KD value with respect to GDP-bound HRAS wild-type protein to KD value with respect to KRAS) [3]: A (a compound having 10 or more and less than 20 is denoted as A)
